Measured values reported in BindingDB's records for doi:10.1021/jm034141y (Merck Research Laboratories, 2003).

Test: In vitro inhibition of purified Carboxypeptidase B (CPB) by ECL assay

SMILES	IC50 [nM]
O=C(O)C(Cc1ccccc1)c1cnc[nH]1 (configuration not stated) [2-(1H-Imidazol-4-yl)-3-phenyl-propionic acid]	> 100000
Nc1ccc(CC(C(=O)O)c2cn(Cc3ccccc3)cn2)cn1 (configuration not stated) [3-(6-Amino-pyridin-3-yl)-2-(1-benzyl-1H-imidazol-4-yl)-propionic acid]	21
